Data reported in PMC7956643, “Synthesis of Novel Pyrido[1,2-c]pyrimidine Derivatives with 6-Fluoro-3-(4-piperidynyl)-1,2-benzisoxazole Moiety as Potential SSRI and 5-HT1A Receptor Ligands” (International Journal of Molecular Sciences, 2021).
Marks after values point to notes of the source that are not given here.

Experiments:
SERT protein = target: T1, SERT protein (Rattus norvegicus, UniProt P31652); assay: SERT radioligand binding assay; details: [3H]-citalopram 1.0 nM; rat cortex tissue
T1 construct: from tissue; host or cells: rat cortex
Method: Radioligand binding was performed using rat cortex tissue. All assays were carried out in duplicate. First, 50 µL working solution of the tested compounds, 50 µL [^3H]-citalopram (final concentration 1.0 nM) and 150 µL tissue suspension, prepared in assay buffer (50 mM Tris. pH 7.7; 150 mM NaCl; 5 mM KCl), were transferred to a polypropylene 96-well microplate using 96-wells pipetting station Rainin Liquidator (MettlerToledo). […] The reaction was terminated by rapid filtration through GF/B filter mate presoaked with 0.3% polyethyleneimine for 30 min. Ten rapid washes with 200 µL 50 mM Tris buffer (4 °C, pH 7.7) were performed using an automated harvester system—Harvester-96 MACH III FM (Tomtec). […] Data were fitted to a one-site curve-fitting equation with Prism 6 (GraphPad Software) and Ki values were estimated from the Cheng–Prusoff equation.

human 5-HT1A receptor = target: T2, human 5-HT1A receptor (Homo sapiens, UniProt P08908); assay: 5-HT1A radioligand binding assay; details: [3H]-8-OH-DPAT 1 nM; membranes from CHO-K1 cells with human 5-HT1A receptor
T2 construct: purchased PerkinElmer; host or cells: CHO-K1 cells, stably transfected
T2 sequence (P08908 1-422): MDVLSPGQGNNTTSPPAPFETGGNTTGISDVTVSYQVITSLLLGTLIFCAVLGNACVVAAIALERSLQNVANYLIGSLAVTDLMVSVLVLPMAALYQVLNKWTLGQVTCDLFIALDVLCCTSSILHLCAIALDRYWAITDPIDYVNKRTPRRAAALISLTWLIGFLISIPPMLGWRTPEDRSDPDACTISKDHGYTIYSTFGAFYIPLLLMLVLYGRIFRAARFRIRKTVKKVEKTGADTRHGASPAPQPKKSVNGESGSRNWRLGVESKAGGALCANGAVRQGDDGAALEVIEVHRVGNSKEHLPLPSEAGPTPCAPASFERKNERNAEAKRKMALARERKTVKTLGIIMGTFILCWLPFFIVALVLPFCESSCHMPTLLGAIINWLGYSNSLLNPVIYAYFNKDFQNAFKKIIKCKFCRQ
Method: Radioligand binding was performed using membranes from CHO-K1 cells stably transfected with the human 5-HT1A receptor (PerkinElmer, Fremont, CA, USA). All assays were carried out in duplicate. Then, 50 µL working solution of the tested compounds, 50 µL [^3H]-8-OH-DPAT (final concentration 1 nM) and 150 µL diluted membranes (20 µg protein per well) prepared in assay buffer (50 mM Tris, pH 7.4, 10 mM MgSO4, 0.5 mM EDTA, 0.1% ascorbic acid) were transferred to a polypropylene 96-well microplate using 96-wells pipetting station Rainin Liquidator (MettlerToledo, Columbus, OH, USA). […] The reaction was terminated by rapid filtration through GF/B filter mate, presoaked with 0.5% polyethyleneimine for 30 min. Ten rapid washes with 200 µL 50 mM Tris buffer (4 °C, pH 7.4) were performed using an automated harvester system—Harvester-96 MACH III FM (Tomtec, Hamden, CT, USA). […] Data were fitted to a one-site curve-fitting equation with Prism 6 (GraphPad Software, San Diego, CA, USA) and Ki values were estimated from the Cheng–Prusoff equation.

5-HT1A receptor = target: T3, 5-HT1A receptor (Mus musculus, UniProt Q64264); assay: Body temperature in mice (induced hypothermia); assay type: in vivo, CD-1 mice; details: mice, 5 mg/kg sc
T3 construct: from tissue; host or cells: whole animal, male CD-1 mice
T3 sequence (Q64264 1-421): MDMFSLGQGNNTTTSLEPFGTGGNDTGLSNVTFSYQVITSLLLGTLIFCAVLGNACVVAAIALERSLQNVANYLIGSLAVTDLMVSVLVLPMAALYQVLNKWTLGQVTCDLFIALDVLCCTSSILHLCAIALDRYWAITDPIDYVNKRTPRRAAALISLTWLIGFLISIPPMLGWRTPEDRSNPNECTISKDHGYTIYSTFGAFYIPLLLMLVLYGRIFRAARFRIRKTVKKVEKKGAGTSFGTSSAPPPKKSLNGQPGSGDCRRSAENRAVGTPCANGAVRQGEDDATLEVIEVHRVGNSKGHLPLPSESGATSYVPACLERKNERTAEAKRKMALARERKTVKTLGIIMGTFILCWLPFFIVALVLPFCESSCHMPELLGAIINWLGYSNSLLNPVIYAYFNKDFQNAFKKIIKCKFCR
Method: The experiments were performed on male CD-1 mice (23–40 g). The animals were kept at room temperature (21 ± 2 °C) on a natural day-night cycle (March–October) and housed under standard laboratory conditions. They had free access to food and tap water before the experiment. Each experimental group consisted of 6–8 animals/dose. All the animals were used only once. 8-Hydroxy-2-(di-n-propylamino)tetralin hydro-bromide (8-OH-DPAT, Research Biochemical Inc.) was used as aqueous solution. […] Vehicle group was administered as 10% aqueous solution of dimethyl sulphoxide (DMSO). 8-OH-DPAT was injected subcutaneously (sc); 6a and 7g were given intraperitoneally (ip) in a volume of 10 mL/kg/mice. The obtained data were analyzed by Dunnett’s test (one drug administration) or by the Newman–Keuls test (two drugs administrations). Forced swim test: the obtained data was evaluated by one-way analysis of variance (ANOVA) followed by the Dunnett’s multiple comparisons test: p < 0.05 was considered significant.
The results were expressed as a change in body temperature (Δt) with respect to the basal body temperature, as measured at the beginning of the experiment.

T1 sequence (P31652 whole entry): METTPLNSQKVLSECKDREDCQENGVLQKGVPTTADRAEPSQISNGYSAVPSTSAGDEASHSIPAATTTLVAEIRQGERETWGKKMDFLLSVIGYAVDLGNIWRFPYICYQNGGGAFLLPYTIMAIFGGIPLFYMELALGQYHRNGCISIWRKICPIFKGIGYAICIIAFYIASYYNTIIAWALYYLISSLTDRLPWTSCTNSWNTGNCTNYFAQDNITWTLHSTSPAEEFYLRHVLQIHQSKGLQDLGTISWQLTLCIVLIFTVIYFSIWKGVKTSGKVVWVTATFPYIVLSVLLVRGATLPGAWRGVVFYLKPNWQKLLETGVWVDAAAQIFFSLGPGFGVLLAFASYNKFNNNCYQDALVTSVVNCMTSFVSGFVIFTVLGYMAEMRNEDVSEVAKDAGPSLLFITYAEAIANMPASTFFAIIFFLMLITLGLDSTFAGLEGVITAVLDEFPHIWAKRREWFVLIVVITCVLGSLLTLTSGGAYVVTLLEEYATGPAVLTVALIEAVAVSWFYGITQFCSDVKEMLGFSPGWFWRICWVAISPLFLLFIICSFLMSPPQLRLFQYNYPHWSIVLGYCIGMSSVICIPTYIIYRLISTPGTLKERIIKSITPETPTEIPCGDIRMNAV

SMILES | Ki (SERT protein) | Ki (human 5-HT1A receptor) | melting point | Δt ± SEM, body temperature (5-HT1A receptor; 30 min) | Δt ± SEM, body temperature (5-HT1A receptor; 60 min) | Δt ± SEM, body temperature (5-HT1A receptor; 90 min) | Δt ± SEM, body temperature (5-HT1A receptor; 120 min)
Cc1ccccc1-c1c(=O)n(CCCCN2CCC(c3noc4cc(F)ccc34)CC2)c(=O)n2ccccc12 [Compound 6b, 4-(2-Methylphenyl)-2-{4-[4-(6-fluoro-1,2-benzoxazol)-1-piperidyl]butyl}-pyrido[1,2-c]pyrimidine-1,3-dione] | > 5000 nM | 30 ± 3.5 nM | 120 to 122 °C |  |  |  | 
COc1ccccc1-c1c(=O)n(CCCCN2CCC(c3noc4cc(F)ccc34)CC2)c(=O)n2ccccc12 [Compound 6c, 4-(2-Methoxphenyl)-2-{4-[4-(6-fluoro-1,2-benzoxazol)-1-piperidyl]butyl}-pyrido[1,2-c]pyrimidine-1,3-dione] | > 5000 nM | 7 ± 1 nM | 65 to 70 °C |  |  |  | 
O=c1c(-c2ccccc2F)c2ccccn2c(=O)n1CCCCN1CCC(c2noc3cc(F)ccc23)CC1 [Compound 6e, 4-(2-Fluorophenyl)-2-{4-[4-(6-fluoro-1,2-benzoxazol)-1-piperidyl]butyl}-pyrido[1,2-c]pyrimidine-1,3-dione] | > 1000 nM | 15 ± 0.6 nM | 58 to 62 °C |  |  |  | 
Cc1ccc(-c2c(=O)n(CCCCN3CCC(c4noc5cc(F)ccc45)CC3)c(=O)n3ccccc23)cc1 [Compound 6f, 4-(4-Methylphenyl)-2-{4-[4-(6-fluoro-1,2-benzoxazol)-1-piperidyl]butyl}-pyrido[1,2-c]pyrimidine-1,3-dione] | 772 ± 36 nM | 74 ± 4 nM | 158 to 159 °C |  |  |  | 
COc1ccc(-c2c(=O)n(CCCCN3CCC(c4noc5cc(F)ccc45)CC3)c(=O)n3ccccc23)cc1 [Compound 6g, 4-(4-Methoxyphenyl)-2-{4-[4-(6-fluoro-1,2-benzoxazol)-1-piperidyl]butyl}-pyrido[1,2-c]pyrimidine-1,3-dione] | 730 ± 79 nM | 10 ± 1.1 nM | 163 to 166 °C |  |  |  | 
O=c1c(-c2ccc(Cl)cc2)c2ccccn2c(=O)n1CCCCN1CCC(c2noc3cc(F)ccc23)CC1 [Compound 6h, 4-(4-Chlorophenyl)-2-{4-[4-(6-fluoro-1,2-benzoxazol)-1-piperidyl]butyl}-pyrido[1,2-c]pyrimidine-1,3-dione] | 310 ± 1 nM | 21 ± 1.5 nM | 152 to 155 °C |  |  |  | 
O=c1c(-c2ccc(F)cc2)c2ccccn2c(=O)n1CCCCN1CCC(c2noc3cc(F)ccc23)CC1 [Compound 6i, 4-(4-Fluorophenyl)-2-{4-[4-(6-fluoro-1,2-benzoxazol)-1-piperidyl]butyl}-pyrido[1,2-c]pyrimidine-1,3-dione] | 342 ± 28.8 nM | 17 ± 2 nM | 102 to 107 °C |  |  |  | 
O=c1c(-c2ccccc2)c2n(c(=O)n1CCCCN1CCC(c3noc4cc(F)ccc34)CC1)CCCC2 [Compound 7a, 4-Phenyl-2-{4-[4-(6-fluoro-1,2-benzoxazol-3-yl)-1-piperidyl]butyl}-5,6,7,8-tetrahydro-pyrido[1,2-c]pyrimidine-1,3-dione] | 520 ± 58.8 nM | 27 ± 2 nM | 110 to 113 °C |  |  |  | 
Cc1ccccc1-c1c2n(c(=O)n(CCCCN3CCC(c4noc5cc(F)ccc45)CC3)c1=O)CCCC2 [Compound 7b, 4-(2-Methylphenyl)-2-{4-[4-(6-fluoro-1,2-benzoxazol)-1-piperidyl]butyl}-5,6,7,8-tetrahydro-pyrido[1,2-c]pyrimidine-1,3-dione] | > 1000 nM | 35 ± 3.5 nM |  |  |  |  | 
COc1ccccc1-c1c2n(c(=O)n(CCCCN3CCC(c4noc5cc(F)ccc45)CC3)c1=O)CCCC2 [Compound 7c, 4-(2-Methoxphenyl)-2-{4-[4-(6-fluoro-1,2-benzoxazol)-1-piperidyl]butyl}-5,6,7,8-tetrahydro-pyrido[1,2-c]pyrimidine-1,3-dione] | 878 ± 88 nM | 62 ± 6 nM |  |  |  |  | 
O=c1c(-c2ccccc2Cl)c2n(c(=O)n1CCCCN1CCC(c3noc4cc(F)ccc34)CC1)CCCC2 [Compound 7d, 4-(2-Chlorophenyl)-2-{4-[4-(6-fluoro-1,2-benzoxazol)-1-piperidyl]butyl}-5,6,7,8-tetrahydro-pyrido[1,2-c]pyrimidine-1,3-dione] | 310 ± 34.5 nM | 71 ± 6.9 nM |  |  |  |  | 
O=c1c(-c2ccccc2F)c2n(c(=O)n1CCCCN1CCC(c3noc4cc(F)ccc34)CC1)CCCC2 [Compound 7e, 4-(2-Fluorophenyl)-2-{4-[4-(6-fluoro-1,2-benzoxazol)-1-piperidyl]butyl}-5,6,7,8-tetrahydro-pyrido[1,2-c]pyrimidine-1,3-dione] | > 1000 nM | 36 ± 4.1 nM |  |  |  |  | 
Cc1ccc(-c2c3n(c(=O)n(CCCCN4CCC(c5noc6cc(F)ccc56)CC4)c2=O)CCCC3)cc1 [Compound 7f, 4-(4-Methylphenyl)-2-{4-[4-(6-fluoro-1,2-benzoxazol)-1-piperidyl]butyl}-5,6,7,8-tetrahydro-pyrido[1,2-c]pyrimidine-1,3-dione] | 1770 ± 180 nM | 52 ± 2.5 nM | 107 to 110 °C |  |  |  | 
O=c1c(-c2ccc(Cl)cc2)c2n(c(=O)n1CCCCN1CCC(c3noc4cc(F)ccc34)CC1)CCCC2 [Compound 7h, 4-(4-Chlorophenyl)-2-{4-[4-(6-fluoro-1,2-benzoxazol)-1-piperidyl]butyl}-5,6,7,8-tetrahydro-pyrido[1,2-c]pyrimidine-1,3-dione] | 290 ± 22.7 nM | 25 ± 3 nM | 116 to 120 °C |  |  |  | 
CCCN(CCC)C1CCc2cccc(O)c2C1 (stereo not drawn) [Compound 8-OH-DPAT, 8-Hydroxy-2-(di-n-propylamino)tetralin hydro-bromide, reference compound] |  |  |  | −1.7 ± 0.2 ^b °C | −1.1 ± 0.2 ^b °C | −0.1 ± 0.1 °C | 0.3 ± 0.3 °C
